Data on three compounds can be found in patent US20150342954A1, “2-BENZYL, 3-(PYRIMIDIN-2-YL) SUBSTITUTED PYRAZOLES USEFUL AS SGC STIMULATORS” (IRONWOOD PHARMACEUTICALS, INC., priority 2011, published 2015).

This assay has as its system Thoracic aortic rings. Put plainly: Alternative thoracic aortic rings assay (Example 5; original resting tension as 100% inhibition). The settings on record: rat thoracic aortic rings contracted with phenylephrine; for Aortic Ring Percent Relaxation at 1 μM: compound at 1 μM; for Aortic Ring Percent Relaxation at 3 μM: compound at 3 μM; for Aortic Ring Percent Relaxation at 10 μM: compound at 10 μM; for pEC50: read-out: Aortic Ring EC50. As for the experimental part:
Thoracic aortic rings were dissected from anesthetized (isoflurane) male Sprague-Dawley rats weighing 275-299 g. Tissues were immediately transferred to ice-cold Krebs-Henseleit solution, which had been aerated with 95% 02 and 5% CO2 for 30 minutes. Following removal of connective tissue, aortic sections were cut into 4 rings (˜2 mm each) and suspended on 2 L-shaped hooks, with one hook fixed at the bottom of the tissue bath (Schuler Organ Bath, Harvard Apparatus) and the other connected to a force transducer (F30 Force Transducer, Harvard Apparatus). Baths contained Krebs Henseleit solution (10 mL) heated to 37° C. and aerated with 95% 02 and 5% CO2. Rings were brought to an initial tension of 0.3-0.5 g and gradually raised to a resting tension of 1.0 g over 60 minutes. Rings were rinsed with Krebs Henseleit solution (heated to 37° C. and aerated with 95% 02 and 5% CO2) at 15 minute intervals until a stable baseline was obtained. Rings were considered to be stable after a resting tension of 1.0 g was maintained (for approximately 10 minutes) without need for adjustment. Rings were then contracted with 100 ng/mL phenylephrine by adding 100 μL of a 10 μg/mL phenylephrine stock solution. Tissues achieving a stable contraction were then treated in a cumulative, dose dependent manner with test compounds prepared in dimethylsulfoxide (DMSO). In some cases, tissues were rinsed three times over a 5 minute period with Krebs-Heinseleit's solution (heated to 37° C. and aerated with 95% 02 and 5% CO2), allowed to stabilize at baseline, and then used for characterization of other test articles or DMSO effects. All data were collected using the HSE-ACAD software provided by Harvard Apparatus. […] EC50 values were calculated from concentration-response curves generated with GraphPad Prism Software.
Biological Activity Measurement by the Thoracic Aortic Rings Assay
The biological data for some of a compound of Table I, in comparison with the known compound, BAY 41-2272, as the reference compound, determined by the thoracic aorta ring assay of Example 5 are presented in Table 6 below.

Molecules are shown by their SMILES. pEC50: −log10 of the molar value. A value given as a limit tells only on which side of the number the result lay.

In general, pEC50 refers to −log10 of the EC50, conventionally taken in molar units. On to `Nc1nc(-c2cc(-c3ccon3)n(Cc3ccccc3F)n2)ncc1NC(=O)C1(c2ccccc2)CC1` [Compound 27], for which the “Aortic Ring Percent Relaxation at 1 μM” value is on record as “F (80 to <100%)”, the “Aortic Ring Percent Relaxation at 3 μM” value is “G (100 to <120%)”, the “Aortic Ring Percent Relaxation at 10 μM” value is reported as “G (100 to <120%)” and the negative-log EC50 (pEC50) was > 5.70.
With `Nc1nc(-c2cc(-c3ccon3)n(Cc3ccccc3F)n2)ncc1NC(=O)C1(F)CC1` [Compound 35], the “Aortic Ring Percent Relaxation at 1 μM” value was “G (100 to <120%)”, the “Aortic Ring Percent Relaxation at 3 μM” value is “H (higher than 120%)”, the “Aortic Ring Percent Relaxation at 10 μM” value is “H (higher than 120%)” and the pEC50 was > 5.70.
Turning to `Nc1nc(-c2cc(-c3ccon3)n(Cc3cccc(F)c3F)n2)ncc1NC(=O)C1(C(F)(F)F)CC1` [Compound 40], the “Aortic Ring Percent Relaxation at 1 μM” value is listed as “G (100 to <120%)”, the “Aortic Ring Percent Relaxation at 3 μM” value was “G (100 to <120%)”, the “Aortic Ring Percent Relaxation at 10 μM” value is “G (100 to <120%)” and the pEC50 is > 5.70.
